From US11452292B2, “Biofilm inhibitor and method of inhibiting biofilm” (NDSU Research Foundation, priority 2017, dated 2022)
In brackets after ≈: the same amount, converted by molar mass.

Legend:
C. sakazakii = experiment: Biofilm amounts, CV assay, 24-well polystyrene plate; format: cell-based; conditions: Cronobacter sakazakii, 37° C.
Text: (§1) Data were expressed as OD600.

S. marcescens = experiment: as above; format: cell-based; conditions: Serratia marcescens, 30° C.
Text: as §1

Y. enterocolitica [1] = experiment: as above; format: cell-based, Yersinia enterocolitica
Text: as §1

Y. enterocolitica [2] = experiment: Biofilm amounts, ATP assay, 24-well polystyrene plate; format: cell-based, Yersinia enterocolitica; conditions: for IC50: Yersinia enterocolitica, Y. enterocolitica
total bacterial count = experiment: Ground beef at 10° C., total bacterial count on PCA plates; format: cell-based; conditions: for total bacterial count in the presence of EAA: day 3, unsupplemented 9 log10; for Different from 0% (concentrations grouping differently from untreated control, Fisher's LSD and t-test): PCA, total bacterial count
Description: (§2) Ground beef was obtained from the NDSU Meat Lab (ag.ndsu.edu/ansc/facilities/shepperd-arena). Precautionary steps that the slaughter facility undertakes to prevent microbial contamination of muscle meat include rinses of the hot carcass with hot water and 2.5% lactic acid (Birko Corp., Henderson, Colo.). Prior to cutting the meat, cattle halves are incubated for two weeks at a temperature between 0 and 2.2° C. For this Example, meat from two animals was ground within the NDSU Meat Lab and consecutively transferred on ice to the research lab where this Experiment was conducted. Approximately 4 pound of ground meat was obtained from two independent slaughter events (FIG. 6). These two original meat samples are referred to as biological replicates throughout this study. Each biological replicate was weighed into five aliquots of 200 g that were supplemented with 0 g, 0.1 g, 0.5 g, 1 g, or 5 g of liquid EAA (Alfa Aesar, Ward Hill Mass.). A total of six aliquots of 10 g were produced from each 200 g aliquot to allow for two technical replicates and determination of bacterial counts at three different time points during the incubation period. Aliquots were stored in Ziploc bags at −20° C.
(§3) Meat samples were removed from the freezer and incubated at 10° C. for five days; bacterial counts were determined on days 1, 3, and 5. For one initial experiment, samples were removed after 1 h of incubation at 10° C. This aliquot is not included in FIG. 6.
(§4) The content of each bag was transferred into a stomacher bag and Maximum Recovery Diluent (MRD) was added to a total of 50 ml. Meat was homogenized in a Seward Stomacher 400 Circulator (Cole Parmer, Vernon Hills, Ill.). The total bacterial count of each homogenate was determined by plating serial dilutions on Plate Count Agar (PCA). Pseudomonads were determined with Pseudomonas Selective Agar (PSA), lactobacilli with All Purpose Tween agar (APT), B. thermospacta with Streptomycin sulphate, Thallous Acetate and Actidione agar (STAA), and Enterobacteriaceae with Violet Red Bile Glucose agar (VRBG). For the composition of these media, see TABLE 7 (BD: Becton Dickinson). Each serial dilution was plated onto two separate agar plates to allow for two plate replicates (FIG. 6).
Each experiment was performed in a total of 8 replicates (2 biological replicates×2 technical replicates×2 plate replicates). To prepare for analysis, the data sets were pre-processed by determining the averages for the 2 plate replicates. Data were analyzed for each EAA concentration and selective media and expressed as CFU/g of meat or log10 CFU/g of meat. The lower limit of detection was 49 CFU, which is the equivalent of 1.69 log10. This number was used for all experiments that yielded zero colonies from the undiluted homogenate. To determine log reductions, the log10 CFU/g of meat at a given concentration of EAA was subtracted from that obtained for the untreated control piece of meat. Average and standard errors were calculated across the two biological and two technical replicates. Statistical analysis was started with an Analysis of Variance (ANOVA) test that compared the means of the log10 CFU/g data across concentrations, days, and biological replicates to determine the main effects. For comparisons that determined statistically significant differences between the means (p-value below 0.05), Fisher's Least Significant Difference (LSD) test and a pairwise Student's t-test were performed as post hoc test to determine which of the groups were different from the others.

pseudomonads = experiment: Ground beef at 10° C., counts on PSA plates; format: cell-based; conditions: for Different from 0% (concentrations grouping differently from untreated control, Fisher's LSD and t-test): PSA, Pseudomonas
Description: as §2, with “A total of six aliquots of 10 g were produced from each 200 g aliquot to allow for two technical replicates and determination of bacterial counts at three different time points during the incubation period. Aliquots were stored in Ziploc bags at −20° C.” left out
(§5) Meat samples were removed from the freezer and incubated at 10° C. for five days; bacterial counts were determined on days 1, 3, and 5. […]
(§6) The content of each bag was transferred into a stomacher bag and Maximum Recovery Diluent (MRD) was added to a total of 50 ml. […] The total bacterial count of each homogenate was determined by plating serial dilutions on Plate Count Agar (PCA). Pseudomonads were determined with Pseudomonas Selective Agar (PSA), lactobacilli with All Purpose Tween agar (APT), B. thermospacta with Streptomycin sulphate, Thallous Acetate and Actidione agar (STAA), and Enterobacteriaceae with Violet Red Bile Glucose agar (VRBG). […]
(§7) Each experiment was performed in a total of 8 replicates (2 biological replicates×2 technical replicates×2 plate replicates). […] Data were analyzed for each EAA concentration and selective media and expressed as CFU/g of meat or log10 CFU/g of meat. […] Average and standard errors were calculated across the two biological and two technical replicates. […]

B. thermospacta = experiment: Ground beef at 10° C., counts on STAA plates; format: cell-based, Brocothrix thermospacta; conditions: for Different from 0% (concentrations grouping differently from untreated control, Fisher's LSD and t-test): STAA, B. thermospacta
Description: as §2, with “A total of six aliquots of 10 g were produced from each 200 g aliquot to allow for two technical replicates and determination of bacterial counts at three different time points during the incubation period. Aliquots were stored in Ziploc bags at −20° C.” left out
as §5, §6, §7

Enterobacteriaceae = experiment: Ground beef at 10° C., counts on VRBG plates; format: cell-based; conditions: for Different from 0% (concentrations grouping differently from untreated control, Fisher's LSD and t-test): VRGB, Enterobacteriaceae
Description: as §2, §3
as §4, with “Each serial dilution was plated onto two separate agar plates to allow for two plate replicates (FIG. 6).” left out
Each experiment was performed in a total of 8 replicates (2 biological replicates×2 technical replicates×2 plate replicates). […] Data were analyzed for each EAA concentration and selective media and expressed as CFU/g of meat or log10 CFU/g of meat. […] Average and standard errors were calculated across the two biological and two technical replicates. […] For comparisons that determined statistically significant differences between the means (p-value below 0.05), Fisher's Least Significant Difference (LSD) test and a pairwise Student's t-test were performed as post hoc test to determine which of the groups were different from the others.

E. coli O157:H7 = format: cell-based, Escherichia coli O157:H7; conditions: 0.5% EAA
[3] = test system: tested bacterial pathogens; experiment: Biofilm in silicone tubing, EAA flush, ATP assay, summary over strains; format: cell-based
Text: An AV Fistula Needle 17 Ga.

rats = rats fed up to 300 mg/kg body weight of EAA every day for 28 days; cited from earlier work
isolated bovine corneas = conditions: cited from earlier work
S. enterica = conditions: cited from earlier work
E. coli = conditions: cited from earlier work
P. aeruginosa [4] = experiment: Biofilm in silicone tubing, EAA flush, CV assay; conditions: 100 mg/ml EAA
E. coli CFT073 = experiment: Biofilm in silicone tubing, EAA flush, CV assay
Y. enterocolitica [5] = experiment: Biofilm in silicone tubing, EAA flush, ATP assay
P. aeruginosa [6] = experiment: Viable cell counts from the biofilms in silicone tubing; conditions: 100 mg/ml of EAA, end of two week incubation

CCOC(=O)CC(C)=O [EAA, ethyl acetoacetate]
IC50 (C. sakazakii): 700 µg/mL (≈ 5.38 mM)
IC50 (S. marcescens): 5600 µg/mL (≈ 43 mM)
biofilm amounts quantified by the CV assay (Y. enterocolitica [1]; 37° C., 10 mg/ml EAA): abolished
IC50 (Y. enterocolitica [1]; Yersinia enterocolitica, Y. enterocolitica, 25° C.): 1000 µg/mL (≈ 7.68 mM)
biofilm reduction by the ATP assay, fold equivalent (Y. enterocolitica [2]; 25° C., 15 mg/ml of EAA): 200 fold
log ratio of biofilm reduction by the ATP assay (Y. enterocolitica [2]; 25° C., 15 mg/ml of EAA): 2.3 log
biofilm amounts quantified by the ATP assay (Y. enterocolitica [2]; 37° C., 10 mg/ml EAA): abolished
log reduction in biofilm amount, ATP assay (Y. enterocolitica [2]; 37° C., 10 mg/ml of EAA): 2.04
reduction in biofilm amount, ATP assay, fold equivalent (Y. enterocolitica [2]; 37° C., 10 mg/ml of EAA): 110 fold
IC50 (Y. enterocolitica [2]; 25° C.): 2100 µg/mL (≈ 16.1 mM)
IC50 (Y. enterocolitica [2]; 37° C.): 4290 µg/mL (≈ 33 mM)
log reduction, total bacterial count (total bacterial count; 0.5% EAA, 3 days at 10° C.): 2.4
log reduction, total bacterial count (total bacterial count; 0.5% of EAA, 1 day at 10° C.): 0.65
total bacterial count in the presence of EAA (total bacterial count; 0.5% of EAA): 7.8 log10
reduction of total bacterial count (total bacterial count; 2.5% EAA, 5 days at 10° C.): 4.3 logs
log reduction, total bacterial count (total bacterial count; 2.5% of EAA, 1 day at 10° C.): 2.1
total bacterial count in the presence of EAA (total bacterial count; 2.5% of EAA): 6.6 log10
Different from 0% (concentrations grouping differently from untreated control, Fisher's LSD and t-test) (total bacterial count; 0.5% EAA): 0.5%
Different from 0% (concentrations grouping differently from untreated control, Fisher's LSD and t-test) (total bacterial count; 2.5% EAA): 2.5%
log reduction, pseudomonads (pseudomonads; 0.5% w/w EAA, 3 days at 10° C.): 2.6
Different from 0% (concentrations grouping differently from untreated control, Fisher's LSD and t-test) (pseudomonads; 0.5% EAA): 0.5%
Different from 0% (concentrations grouping differently from untreated control, Fisher's LSD and t-test) (pseudomonads; 2.5% EAA): 2.5%
log reduction, Brocothrix thermospecta (B. thermospacta; 0.5% w/w EAA, 3 days at 10° C.): 2.1
Different from 0% (concentrations grouping differently from untreated control, Fisher's LSD and t-test) (B. thermospacta; 0.5% EAA): 0.5%
Different from 0% (concentrations grouping differently from untreated control, Fisher's LSD and t-test) (B. thermospacta; 2.5% EAA): 2.5%
log reduction, Enterobacteriaceae (Enterobacteriaceae; 0.5% w/w EAA, 3 days at 10° C.): 2
log reductions, Enterobacteriaceae (Enterobacteriaceae; 2.5% of EAA, 5 days at 10° C.): up to 3.8
Different from 0% (concentrations grouping differently from untreated control, Fisher's LSD and t-test) (Enterobacteriaceae; 0.5% EAA): 0.5%
Different from 0% (concentrations grouping differently from untreated control, Fisher's LSD and t-test) (Enterobacteriaceae; 2.5% EAA): 2.5%
externally added E. coli count in the presence of EAA (E. coli O157:H7; day 3, without EAA 5.2 log10): 4.1 log10
reduction in the E. coli count (E. coli O157:H7; day 5 at 10° C.): 1.6 log
reductions of ATP, all strains except S. marcescens ([3]; 10 mg/ml EAA): ≥ 80%
reduction of ATP content of the biofilm, almost all tested pathogens ([3]; 100 mg/ml of EAA flush): 100%
reduction of ATP content depending on the strain ([3]; 10 and 100 mg/ml EAA): 90-99%
general health, hematology, serum, urine, renal function (rats): did not result in any general health defects or changes in hematology, serum, urine, or renal function
eye irritation (isolated bovine corneas): moderate eye irritation that was fully reversible after seven days
mutagenicity (S. enterica): No mutagenicity was detected
mutagenicity (E. coli): a mutagenic effect could be detected
reduction in biofilm biomass (CV), words (P. aeruginosa [4]; first experiment): no reduction
biofilm biomass from the CV assay after EAA (P. aeruginosa [4]; repeated experiment, untreated 0.78): 0.24 OD600
reduction in total biofilm biomass (CV), words (E. coli CFT073; E. coli CFT073, 5 mg/ml of EAA): almost no reduction
reduction in biofilm biomass (CV), words (E. coli CFT073; E. coli CFT073, 10 mg/ml EAA): No reduction
reduction in ATP content in the biofilm (Y. enterocolitica [5]; 1 mg/ml EAA): 71%
percent reduction of ATP (Y. enterocolitica [5]; 100 mg/ml EAA): 105%
reduction of cell counts within the biofilm (P. aeruginosa [6]): about 3 logs
